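Dose response: 5 concentrations. Exposure: 48 h. Format: 96-well plates. Endpoint: linear interpolation; highest concentration if not reached. TGI: total growth inhibition.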
Columns and labels:
Experiment in all cases: inhibition of tumour cell growth, NCI panel, 48 h
HL-60(TB) leukemia = tested on: HL-60(TB) leukemia
PC-3 prostate = tested on: PC-3 prostate
IGROV1 ovarian = tested on: IGROV1 ovarian
MDA-N = tested on: MDA-N
OVCAR-5 ovarian = tested on: OVCAR-5 ovarian
A498 renal = tested on: A498 renal
SF-295 CNS = tested on: SF-295 CNS
HS 578T breast = tested on: HS 578T breast
SK-MEL-5 melanoma = tested on: SK-MEL-5 melanoma
SNB-19 CNS = tested on: SNB-19 CNS
HCT-15 colon = tested on: HCT-15 colon
MALME-3M melanoma = tested on: MALME-3M melanoma
MDA-MB-231 breast = tested on: MDA-MB-231 breast
OVCAR-3 ovarian = tested on: OVCAR-3 ovarian
NCI/ADR-RES ovarian = tested on: NCI/ADR-RES ovarian
COLO 205 colon = tested on: COLO 205 colon
HCT-116 colon = tested on: HCT-116 colon
SF-268 CNS = tested on: SF-268 CNS
SNB-75 CNS = tested on: SNB-75 CNS
SN12C renal = tested on: SN12C renal
SK-OV-3 ovarian = tested on: SK-OV-3 ovarian
K-562 leukemia = tested on: K-562 leukemia
SF-539 CNS = tested on: SF-539 CNS
OVCAR-8 ovarian = tested on: OVCAR-8 ovarian
UO-31 renal = tested on: UO-31 renal
RXF 393 renal = tested on: RXF 393 renal
KM12 colon = tested on: KM12 colon
MCF7 breast = tested on: MCF7 breast
UACC-62 melanoma = tested on: UACC-62 melanoma
NCI-H522 lung = tested on: NCI-H522 lung
HOP-62 NSCLC = tested on: HOP-62 NSCLC
NCI-H23 lung = tested on: NCI-H23 lung
TK-10 renal = tested on: TK-10 renal
MOLT-4 leukemia = tested on: MOLT-4 leukemia
SK-MEL-2 melanoma = tested on: SK-MEL-2 melanoma
LOX IMVI melanoma = tested on: LOX IMVI melanoma
HT29 colon = tested on: HT29 colon
HCC-2998 colon = tested on: HCC-2998 colon
786-0 renal = tested on: 786-0 renal
T-47D breast = tested on: T-47D breast
BT-549 breast = tested on: BT-549 breast
CCRF-CEM leukemia = tested on: CCRF-CEM leukemia
OVCAR-4 ovarian = tested on: OVCAR-4 ovarian
NCI-H226 lung = tested on: NCI-H226 lung
SK-MEL-28 melanoma = tested on: SK-MEL-28 melanoma
U251 CNS = tested on: U251 CNS
SR leukemia = tested on: SR leukemia
A549 NSCLC = tested on: A549 NSCLC
DU-145 prostate = tested on: DU-145 prostate
UACC-257 melanoma = tested on: UACC-257 melanoma
ACHN renal = tested on: ACHN renal
SW-620 colon = tested on: SW-620 colon
EKVX NSCLC = tested on: EKVX NSCLC
M14 melanoma = tested on: M14 melanoma
HOP-92 NSCLC = tested on: HOP-92 NSCLC
MDA-MB-435 = tested on: MDA-MB-435
RPMI-8226 leukemia = tested on: RPMI-8226 leukemia
CAKI-1 renal = tested on: CAKI-1 renal
NCI-H460 lung = tested on: NCI-H460 lung

## C=C1C2CC[C@@](C)(O)C2[C@H]2OC(=O)C(=C)[C@@H]2C[C@H]1O (stereo partly specified)
HL-60(TB) leukemia
  TGI: > 100 µM
PC-3 prostate
  TGI: > 100 µM
IGROV1 ovarian
  TGI: > 100 µM
MDA-N
  TGI: 91.1 µM
OVCAR-5 ovarian
  TGI: > 100 µM
A498 renal
  TGI: > 100 µM
SF-295 CNS
  TGI: > 100 µM
HS 578T breast
  TGI: 71.5 µM
SK-MEL-5 melanoma
  TGI: 28.8 µM
SNB-19 CNS
  TGI: > 100 µM
HCT-15 colon
  TGI: 45.9 µM
MALME-3M melanoma
  TGI: 30.5 µM
MDA-MB-231 breast
  TGI: 80.1 µM
OVCAR-3 ovarian
  TGI: 64.1 µM
NCI/ADR-RES ovarian
  TGI: 45.8 µM
COLO 205 colon
  TGI: 37.6 µM
HCT-116 colon
  TGI: > 100 µM
SF-268 CNS
  TGI: > 100 µM
SNB-75 CNS
  TGI: > 100 µM
SN12C renal
  TGI: 59 µM
SK-OV-3 ovarian
  TGI: 80.2 µM
K-562 leukemia
  TGI: > 100 µM
SF-539 CNS
  TGI: 27.2 µM
OVCAR-8 ovarian
  TGI: 56.5 µM
UO-31 renal
  TGI: 31.5 µM
RXF 393 renal
  TGI: 71.9 µM
KM12 colon
  TGI: 46.2 µM
MCF7 breast
  TGI: 27.3 µM
UACC-62 melanoma
  TGI: 30.1 µM
NCI-H522 lung
  TGI: 35.6 µM
HOP-62 NSCLC
  TGI: > 100 µM
NCI-H23 lung
  TGI: 36 µM
TK-10 renal
  TGI: 37.8 µM
MOLT-4 leukemia
  TGI: 60 µM
SK-MEL-2 melanoma
  TGI: 50.7 µM
LOX IMVI melanoma
  TGI: 35 µM
HT29 colon
  TGI: 32.7 µM
HCC-2998 colon
  TGI: 37.3 µM
786-0 renal
  TGI: 39.2 µM
T-47D breast
  TGI: 42.1 µM
BT-549 breast
  TGI: 24.8 µM
CCRF-CEM leukemia
  TGI: 17.9 µM
OVCAR-4 ovarian
  TGI: 30.3 µM
NCI-H226 lung
  TGI: 40.1 µM
SK-MEL-28 melanoma
  TGI: 72.8 µM
U251 CNS
  TGI: > 100 µM
SR leukemia
  TGI: > 100 µM
A549 NSCLC
  TGI: > 100 µM
DU-145 prostate
  TGI: 35.5 µM
UACC-257 melanoma
  TGI: 41.8 µM
ACHN renal
  TGI: 22.7 µM
SW-620 colon
  TGI: > 100 µM
EKVX NSCLC
  TGI: > 100 µM
M14 melanoma
  TGI: 31.9 µM
HOP-92 NSCLC
  TGI: 88.9 µM
MDA-MB-435
  TGI: > 100 µM
RPMI-8226 leukemia
  TGI: > 100 µM
CAKI-1 renal
  TGI: 27.2 µM

## CCOC(=O)C1(C(C)=O)OC(=O)c2cnccc21 (stereo unspecified)
HL-60(TB) leukemia
  TGI: > 100 µM
PC-3 prostate
  TGI: > 100 µM
IGROV1 ovarian
  TGI: > 100 µM
MDA-N
  TGI: > 100 µM
OVCAR-5 ovarian
  TGI: > 100 µM
A498 renal
  TGI: > 100 µM
SF-295 CNS
  TGI: > 100 µM
HS 578T breast
  TGI: > 100 µM
SK-MEL-5 melanoma
  TGI: > 100 µM
SNB-19 CNS
  TGI: > 100 µM
HCT-15 colon
  TGI: > 100 µM
MALME-3M melanoma
  TGI: > 100 µM
MDA-MB-231 breast
  TGI: > 100 µM
OVCAR-3 ovarian
  TGI: > 100 µM
NCI/ADR-RES ovarian
  TGI: > 100 µM
COLO 205 colon
  TGI: > 100 µM
HCT-116 colon
  TGI: > 100 µM
SF-268 CNS
  TGI: > 100 µM
NCI-H460 lung
  TGI: > 100 µM
SNB-75 CNS
  TGI: > 100 µM
SN12C renal
  TGI: > 100 µM
SK-OV-3 ovarian
  TGI: > 100 µM
K-562 leukemia
  TGI: > 100 µM
SF-539 CNS
  TGI: > 100 µM
OVCAR-8 ovarian
  TGI: > 100 µM
UO-31 renal
  TGI: > 100 µM
RXF 393 renal
  TGI: > 100 µM
KM12 colon
  TGI: > 100 µM
MCF7 breast
  TGI: > 100 µM
UACC-62 melanoma
  TGI: > 100 µM
NCI-H522 lung
  TGI: > 100 µM
NCI-H23 lung
  TGI: > 100 µM
MOLT-4 leukemia
  TGI: > 100 µM
SK-MEL-2 melanoma
  TGI: > 100 µM
LOX IMVI melanoma
  TGI: > 100 µM
HT29 colon
  TGI: > 100 µM
HCC-2998 colon
  TGI: > 100 µM
786-0 renal
  TGI: > 100 µM
T-47D breast
  TGI: > 100 µM
BT-549 breast
  TGI: > 100 µM
CCRF-CEM leukemia
  TGI: > 100 µM
NCI-H226 lung
  TGI: > 100 µM
SK-MEL-28 melanoma
  TGI: > 100 µM
U251 CNS
  TGI: > 100 µM
SR leukemia
  TGI: > 100 µM
A549 NSCLC
  TGI: > 100 µM
DU-145 prostate
  TGI: > 100 µM
UACC-257 melanoma
  TGI: > 100 µM
ACHN renal
  TGI: > 100 µM
SW-620 colon
  TGI: > 100 µM
EKVX NSCLC
  TGI: > 100 µM
M14 melanoma
  TGI: > 100 µM
HOP-92 NSCLC
  TGI: > 100 µM
MDA-MB-435
  TGI: > 100 µM
RPMI-8226 leukemia
  TGI: > 100 µM
CAKI-1 renal
  TGI: > 100 µM

## O=[N+]([O-])c1ccc(/C(=C\c2ccccc2)Cn2ccnc2)cc1
HL-60(TB) leukemia
  TGI: 46.4 µM
PC-3 prostate
  TGI: 95.7 µM
IGROV1 ovarian
  TGI: > 100 µM
MDA-N
  TGI: 75.1 µM
OVCAR-5 ovarian
  TGI: > 100 µM
A498 renal
  TGI: 72 µM
SF-295 CNS
  TGI: > 100 µM
HS 578T breast
  TGI: 69.9 µM
SK-MEL-5 melanoma
  TGI: 94.4 µM
SNB-19 CNS
  TGI: > 100 µM
HCT-15 colon
  TGI: > 100 µM
MALME-3M melanoma
  TGI: > 100 µM
MDA-MB-231 breast
  TGI: 87.8 µM
NCI/ADR-RES ovarian
  TGI: 66 µM
COLO 205 colon
  TGI: 30 µM
HCT-116 colon
  TGI: > 100 µM
NCI-H460 lung
  TGI: > 100 µM
SNB-75 CNS
  TGI: 86.4 µM
SN12C renal
  TGI: > 100 µM
SK-OV-3 ovarian
  TGI: > 100 µM
K-562 leukemia
  TGI: 69.2 µM
SF-539 CNS
  TGI: > 100 µM
OVCAR-8 ovarian
  TGI: > 100 µM
UO-31 renal
  TGI: > 100 µM
RXF 393 renal
  TGI: > 100 µM
KM12 colon
  TGI: > 100 µM
MCF7 breast
  TGI: > 100 µM
UACC-62 melanoma
  TGI: > 100 µM
NCI-H522 lung
  TGI: 57.8 µM
HOP-62 NSCLC
  TGI: > 100 µM
NCI-H23 lung
  TGI: > 100 µM
TK-10 renal
  TGI: > 100 µM
MOLT-4 leukemia
  TGI: > 100 µM
SK-MEL-2 melanoma
  TGI: 61.1 µM
LOX IMVI melanoma
  TGI: 54.1 µM
HT29 colon
  TGI: 67.1 µM
HCC-2998 colon
  TGI: > 100 µM
786-0 renal
  TGI: > 100 µM
T-47D breast
  TGI: > 100 µM
BT-549 breast
  TGI: 87.8 µM
CCRF-CEM leukemia
  TGI: > 100 µM
OVCAR-4 ovarian
  TGI: > 100 µM
NCI-H226 lung
  TGI: > 100 µM
SK-MEL-28 melanoma
  TGI: > 100 µM
U251 CNS
  TGI: > 100 µM
SR leukemia
  TGI: > 100 µM
A549 NSCLC
  TGI: > 100 µM
DU-145 prostate
  TGI: > 100 µM
UACC-257 melanoma
  TGI: > 100 µM
ACHN renal
  TGI: > 100 µM
SW-620 colon
  TGI: > 100 µM
EKVX NSCLC
  TGI: > 100 µM
M14 melanoma
  TGI: > 100 µM
HOP-92 NSCLC
  TGI: 79.9 µM
MDA-MB-435
  TGI: > 100 µM
RPMI-8226 leukemia
  TGI: > 100 µM
CAKI-1 renal
  TGI: 45.6 µM

Reference: PubChem BioAssay (NCI)
